Our source for the EC50 values is patent US20230295201A1 (Gilead Sciences, Inc., priority 2020, published 2023).

Where two headings read alike, the source gives them in different places.

Common to all, as to type: cell-based
In one assay the test system is RSV strain A2. The assay is described as follows: RSV HEp-2 EC50 (infectious cytopathic cell protection assay). Conditions: HEp-2 cells, RSV A2, 4 days, read-out: RSV HEp-2 EC50. The method, boiled down: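 Percent inhibition of RSV-induced cytopathic effect came from remaining cell viability (CellTiter-Glo luminescence) after 4 days at 37° C. Compounds in 3-fold serial dilutions were exposed to an infectious mix of titered A2 virus and HEp-2 cells at 50,000/ml, with 0% and 100% inhibition control standards.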
A general note: Cytopathic effects are the visible damage that an infection or toxin causes in cultured cells.

The test system of another assay is RSV A2. As to the kind of experiment: RSV NHBE EC50 (RSV A2 antiviral assay in normal human bronchial epithelial cells). The following applies: NHBE cells, RSV A2, 4 days, read-out: RSV NHBE EC50.
A further assay deals with HRV16. As to the kind of experiment: HRV16 HELA EC50 (cytopathic effect in H1-HeLa cells). The method, boiled down: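 Read-out is luminescent cell viability (CellTiter-Glo) after 96 h of infection at 33 °C, scaled between uninfected and infected-untreated wells. Before infection with titrated virus, compounds went onto H1-HeLa cells as triplicate 3-fold dilution series.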

A further assay concerns DENV2 replicon. As to the kind of experiment: DENV-2 Huh-7 Rep EC50 (replicon luminescence). Conditions: Huh-7 replicon cells, 48 hours, read-out: DENV-2 Huh-7 Rep EC50. The method in brief:
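EC50 derived from luminescence dose-response, normalised to DMSO-only 0% inhibition wells, after 1.5 h with EnduRen substrate. Compounds were first exposed for 48 h at 37° C to DENV2 replicon Huh-7 cells (5,000/well).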

[1] abbreviates: human respiratory syncytial virus, HEp-2, 96 h.
Where [2] appears, read: human respiratory syncytial virus, NHBE, 96 h.
The mark [3] stands for this setting: 96 h, H1-HeLa cells, 33° C., read-out: HRV16 HELA EC50.
The mark [4] stands for this setting: Dengue virus, DENV2, Huh-7, 48 h.
[5] abbreviates: H1-HeLa cells, 96 h, 33° C.; read-out: HRV16 HELA EC50.

Consider `C[C@H](NP(=O)(OC[C@@]1(C#N)O[C@@H](c2ccc3c(N)ncnn23)[C@H](O)[C@@H]1O)Oc1ccccc1)C(=O)OC1CCOC(C)(C)C1` (stereo partly drawn) [Example 156, 2,2-dimethyltetrahydro-2H-pyran-4-yl ((((2R,3S,4R,5S)-5-(4-aminopyrrolo[2,1-f][1,2,4]triazin-7-yl)-2-cyano-3,4-dihydroxytetrahydrofuran-2-yl)methoxy)(phenoxy)phosphoryl)alaninate], for which the EC50 in the assay on RSV strain A2 (setting [1]) was 8.94 µM; with RSV A2 (setting [2]), 1.37 µM; in the assay with HRV16 (setting [3]), 25.9 µM; in the assay on DENV2 replicon (setting [4]), greater than 100 µM.

`CCCCCOC(=O)C[C@H](N[P@](=O)(OC[C@@]1(C#N)O[C@@H](c2ccc3c(N)ncnn23)[C@H](O)[C@@H]1O)Oc1ccccc1)C(=O)OCCCCC` [Example 217]: the EC50 in the assay with RSV strain A2 was 1.01 µM; in the assay with RSV A2, greater than 3.51 µM; in the assay on HRV16 (setting [5]), 4.66 µM; in the assay with DENV2 replicon, 38 µM.

For the compound `CCC(CC)COC(=O)[C@@H](NP(=O)(OC[C@@]1(C#N)O[C@@H](c2ccc3c(N)ncnn23)[C@H](O)[C@@H]1O)Oc1ccccc1)C1CCCCC1` (stereo partly drawn) [Example 116, (2S)-2-ethylbutyl 2-(((((2R,3S,4R,5S)-5-(4-aminopyrrolo[2,1-f][1,2,4]triazin-7-yl)-2-cyano-3,4-dihydroxytetrahydrofuran-2-yl)methoxy)(phenoxy)phosphoryl)amino)-2-cyclohexylacetate], the EC50 was greater than 100 µM in the assay on RSV strain A2 (setting [1]), greater than 5 µM in the assay on RSV A2 (setting [2]), greater than 31.9 µM in the assay on HRV16 (setting [3]) and 11.7 µM in the assay with DENV2 replicon (setting [4]).

As to `C[C@@H](NP(=O)(OC[C@@]1(C#N)O[C@@H](c2ccc3c(N)ncnn23)[C@H](O)[C@@H]1O)Oc1ccccc1)C(=O)O[C@H]1CC[C@H](C(F)(F)F)CC1` (single isomer, unassigned) [Example 195], the EC50 in the assay on RSV strain A2 (setting [1]) is 2.59 µM; in the assay with RSV A2 (setting [2]) it was 0.678 µM; in the assay with HRV16 (setting [5]) it was 2.55 µM; in the assay on DENV2 replicon (setting [4]), greater than 100 µM.

With `C[C@H](NP(=O)(OC[C@@]1(C#N)O[C@@H](c2ccc3c(N)ncnn23)[C@H](O)[C@@H]1O)Oc1ccccc1)C(=O)OCC1CCN(CC(F)(F)F)CC1` (stereo partly drawn) [Example 31, (1-(2,2,2-trifluoroethyl)piperidin-4-yl)methyl ((((2R,3S,4R,5S)-5-(4-aminopyrrolo[2,1-f][1,2,4]triazin-7-yl)-2-cyano3,4-dihydroxytetrahydrofuran-2-yl)methoxy)(phenoxy)phosphoryl)alaninate], the EC50 came out at 0.334 µM in the assay with RSV strain A2 (setting [1]), 0.258 µM in the assay with RSV A2 (setting [2]), 2.5 µM in the assay on HRV16 (setting [3]) and 96 µM in the assay with DENV2 replicon (setting [4]).

For `C[C@H](NP(=O)(OC[C@@]1(C#N)O[C@@H](c2ccc3c(N)ncnn23)[C@H](O)[C@@H]1O)Oc1ccccc1)C(=O)OC1CCOCC1` (single isomer, unassigned) [Example 57], the EC50 was 1.49 µM with RSV strain A2, greater than 4.18 µM in the assay on RSV A2, 5.48 µM in the assay with HRV16 (setting [5]) and greater than 50 µM in the assay with DENV2 replicon.

With `CC(NP(=O)(OC[C@@]1(C#N)O[C@@H](c2ccc3c(N)ncnn23)[C@H](O)[C@@H]1O)Oc1ccccc1)C(=O)O[C@H]1CCNC1=O` (mixture of isomers) [Example 153, (S)-2-oxopyrrolidin-3-yl ((((2R,3S,4R,5S)-5-(4-aminopyrrolo[2,1-f][1,2,4]triazin-7-yl)-2-cyano-3,4-dihydroxytetrahydrofuran-2-yl)methoxy)(phenoxy)phosphoryl)alaninate], the EC50 in the assay with RSV strain A2 (setting [1]) is 7.14 µM; with RSV A2 (setting [2]), greater than 5 µM; in the assay with HRV16 (setting [3]), 12.5 µM; in the assay with DENV2 replicon (setting [4]), greater than 100 µM.

With `C[C@H](NP(=O)(OC[C@@]1(C#N)O[C@@H](c2ccc3c(N)ncnn23)[C@H](O)[C@@H]1O)Oc1ccccc1)C(=O)OC[C@H]1CC[C@H](N)CC1` (stereo partly drawn) [Example 210, ((1r,4S)-4-aminocyclohexyl)methyl ((((2R,3S,4R,5S)-5-(4-aminopyrrolo[2,1-f][1,2,4]triazin-7-yl)-2-cyano-3,4-dihydroxytetrahydrofuran-2-yl)methoxy)(phenoxy)phosphoryl)-L-alaninate], the EC50 was 1.78 µM in the assay with RSV strain A2 (setting [1]), 3.02 µM with RSV A2 (setting [2]), 27.9 µM in the assay with HRV16 (setting [3]) and greater than 50 µM in the assay on DENV2 replicon (setting [4]).

Regarding `CC(=O)N1CC[C@@H](OC(=O)[C@H](C)NP(=O)(OC[C@@]2(C#N)O[C@@H](c3ccc4c(N)ncnn34)[C@H](O)[C@@H]2O)Oc2ccccc2)C1` (stereo partly drawn) [Example 146, (2S)—(R)-1-acetylpyrrolidin-3-yl 2-(((((2R,3S,4R,5S)-5-(4-aminopyrrolo[2,1-f][1,2,4]triazin-7-yl)-2-cyano-3,4-dihydroxytetrahydrofuran-2-yl)methoxy)(phenoxy)phosphoryl)amino)propanoate], the EC50 in the assay with RSV strain A2 (setting [1]) was 9.72 µM; in the assay on RSV A2 (setting [2]) it was greater than 5 µM; in the assay with HRV16 (setting [3]) it was greater than 50 µM; with DENV2 replicon (setting [4]), greater than 50 µM.

As to `C[C@H](N[P@@](=O)(OC[C@@]1(C#N)O[C@@H](c2ccc3c(N)ncnn23)[C@H](O)[C@@H]1O)Oc1ccccc1)C(=O)O[C@H]1CC[C@H](C(F)(F)F)CC1` (single isomer, unassigned) [Example 17], the EC50 in the assay on RSV strain A2 (setting [1]) is 0.308 µM; in the assay on RSV A2 (setting [2]) it was 0.088 µM; with HRV16 (setting [3]), 0.489 µM; with DENV2 replicon (setting [4]) it was 53.7 µM.

In the case of `CCC(CC)COC(=O)C1(NP(=O)(OC[C@@]2(C#N)O[C@@H](c3ccc4c(N)ncnn34)[C@H](O)[C@@H]2O)Oc2ccccc2)CCC1` (stereo partly drawn) [Example 100, 2-ethylbutyl 1-(((((2R,3S,4R,5S)-5-(4-aminopyrrolo[2,1-f][1,2,4]triazin-7-yl)-2-cyano-3,4-dihydroxytetrahydrofuran-2-yl)methoxy)(phenoxy)phosphoryl)amino)cyclobutanecarboxylate], the EC50 in the assay with RSV strain A2 (setting [1]) was greater than 5.6 µM; with RSV A2 (setting [2]), 3.6 µM; in the assay on HRV16 (setting [3]), 18 µM; with DENV2 replicon (setting [4]), greater than 50 µM.

Take `CCN1CCC(OC(=O)[C@H](C)NP(=O)(OC[C@@]2(C#N)O[C@@H](c3ccc4c(N)ncnn34)[C@H](O)[C@@H]2O)Oc2ccccc2)C(F)(F)C1` (stereo partly drawn) [Example 32, 1-ethyl-3,3-difluoropiperidin-4-yl ((((2R,3S,4R,5S)-5-(4-aminopyrrolo[2,1-f][1,2,4]triazin-7-yl)-2-cyano-3,4-dihydroxytetrahydrofuran-2-yl)methoxy)(phenoxy)phosphoryl)-L-alaninate]: the EC50 was 3.44 µM in the assay with RSV strain A2 (setting [1]), greater than 3.12 µM with RSV A2 (setting [2]), 9.95 µM in the assay on HRV16 (setting [3]) and greater than 100 µM in the assay on DENV2 replicon (setting [4]).

As to `C[C@H](NP(=O)(OC[C@@]1(C#N)O[C@@H](c2ccc3c(N)ncnn23)[C@H](O)[C@@H]1O)Oc1ccccc1)C(=O)OC1CCC(C)(C)CC1` (stereo partly drawn) [Example 183, 4,4-dimethylcyclohexyl ((((2R,3S,4R,5S)-5-(4-aminopyrrolo[2,1-f][1,2,4]triazin-7-yl)-2-cyano-3,4-dihydroxytetrahydrofuran-2-yl)methoxy)(phenoxy)phosphoryl)-L-alaninate], the EC50 is 0.08 µM in the assay on RSV strain A2 (setting [1]), 1.2 µM in the assay with RSV A2 (setting [2]), 0.173 µM with HRV16 (setting [3]) and 17.3 µM in the assay on DENV2 replicon (setting [4]).

Regarding `CC(C)OC(=O)[C@H](C)N[P@](=O)(OC[C@@]1(C#N)O[C@@H](c2ccc3c(NC(=O)C(C)C)ncnn23)[C@H](O)[C@@H]1O)Oc1ccccc1` [Example 234, isopropyl ((S)-(((2R,3S,4R,5S)-2-cyano-3,4-dihydroxy-5-(4-isobutyramidopyrrolo[2,1-f][1,2,4]triazin-7-yl)tetrahydrofuran-2-yl)methoxy)(phenoxy)phosphoryl)-L-alaninate], the EC50 was 0.696 µM in the assay on RSV strain A2 (setting [1]), 2.41 µM in the assay on RSV A2 (setting [2]), 6.87 µM in the assay with HRV16 (setting [3]) and 36.4 µM in the assay on DENV2 replicon (setting [4]).

As for `CCCCCCCCCCCCCCCCOCCCNP(=O)(OC[C@@]1(C#N)O[C@@H](c2ccc3c(N)ncnn23)[C@H](O)[C@@H]1O)Oc1ccccc1` (stereo partly drawn) [Example 187, ((2R,3S,4R,5S)-5-(4-aminopyrrolo[2,1-f][1,2,4]triazin-7-yl)-2-cyano-3,4-dihydroxytetrahydrofuran-2-yl)methyl phenyl (3-(hexadecyloxy)propyl)phosphoramidate], the EC50 is 1.49 µM in the assay with RSV strain A2 (setting [1]), greater than 5 µM with RSV A2 (setting [2]), 20.6 µM in the assay on HRV16 (setting [3]) and 9.35 µM in the assay on DENV2 replicon (setting [4]).

For the compound `Cc1oc(=O)oc1COC(=O)C1(NP(=O)(OC[C@@]2(C#N)O[C@@H](c3ccc4c(N)ncnn34)[C@H](O)[C@@H]2O)Oc2ccccc2)CCC1` (stereo partly drawn) [Example 125, (5-methyl-2-oxo-1,3-dioxol-4-yl)methyl 1-(((((2R,3S,4R,5S)-5-(4-aminopyrrolo[2,1-f][1,2,4]triazin-7-yl)-2-cyano-3,4-dihydroxytetrahydrofuran-2-yl)methoxy)(phenoxy)phosphoryl)amino)cyclobutane-1-carboxylate], the EC50 in the assay on RSV strain A2 (setting [1]) is 3.3 µM; in the assay with RSV A2 (setting [2]) it was 3.65 µM; in the assay on HRV16 (setting [3]), 7.65 µM; in the assay with DENV2 replicon (setting [4]) it was greater than 100 µM.

As a reminder, the EC50 is the midpoint of the concentration-response curve.
